Measured values taken from US20140024527A1, “HERBICIDAL PYRAZINONES” (E I DU DE NEMOURS AND COMPANY, priority 2011, published 2014).

What was measured:
Format in all cases: in vivo
[1] = tested on: morningglory (Ipomoea spp.); assay: Test A preemergence; conditions: 0 to 100 scale, 0 no effect, 100 complete control, approx. 10 days
Procedure, shortened: (§1)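 After planting into loam soil blended with sand, pots were treated either preemergence by directed soil spray or postemergence on seedlings 2 to 10 cm tall. Plants stayed in the greenhouse roughly 10 days before visual comparison with controls; 100 denotes complete control.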

[2] = tested on: velvetleaf (Abutilon theophrasti); assay: Test A preemergence; conditions: 0 to 100 scale, 0 no effect, 100 complete control, approx. 10 days
Procedure, shortened: as §1

[3] = tested on: large crabgrass (Digitaria sanguinalis); assay: Test A preemergence; conditions: 0 to 100 scale, 0 no effect, 100 complete control, approx. 10 days
Procedure, shortened: as §1

[4] = tested on: barnyardgrass (Echinochloa crus-galli); assay: Test A preemergence; conditions: 0 to 100 scale, 0 no effect, 100 complete control, approx. 10 days
Procedure, shortened: as §1

[5] = tested on: giant foxtail (Setaria faberii); assay: Test A preemergence; conditions: 0 to 100 scale, 0 no effect, 100 complete control, approx. 10 days
Procedure, shortened: as §1

[6] = tested on: pigweed (Amaranthus retroflexus); assay: Test A preemergence; conditions: 0 to 100 scale, 0 no effect, 100 complete control, approx. 10 days
Procedure, shortened: as §1

[7] = tested on: wheat (Triticum aestivum); assay: Test A preemergence; conditions: 0 to 100 scale, 0 no effect, 100 complete control, approx. 10 days
Procedure, shortened: as §1

[8] = tested on: corn (Zea mays); assay: Test A preemergence; conditions: 0 to 100 scale, 0 no effect, 100 complete control, approx. 10 days
Procedure, shortened: as §1

[9] = tested on: morningglory (Ipomoea spp.); assay: Test A postemergence; conditions: 0 to 100 scale, 0 no effect, 100 complete control, approx. 10 days
Procedure, shortened: as §1

[10] = tested on: velvetleaf (Abutilon theophrasti); assay: Test A postemergence; conditions: 0 to 100 scale, 0 no effect, 100 complete control, approx. 10 days
Procedure, shortened: as §1

[11] = tested on: large crabgrass (Digitaria sanguinalis); assay: Test A postemergence; conditions: 0 to 100 scale, 0 no effect, 100 complete control, approx. 10 days
Procedure, shortened: as §1

[12] = tested on: barnyardgrass (Echinochloa crus-galli); assay: Test A postemergence; conditions: 0 to 100 scale, 0 no effect, 100 complete control, approx. 10 days
Procedure, shortened: as §1

[13] = tested on: giant foxtail (Setaria faberii); assay: Test A postemergence; conditions: 0 to 100 scale, 0 no effect, 100 complete control, approx. 10 days
Procedure, shortened: as §1

[14] = tested on: pigweed (Amaranthus retroflexus); assay: Test A postemergence; conditions: 0 to 100 scale, 0 no effect, 100 complete control, approx. 10 days
Procedure, shortened: as §1

[15] = tested on: wheat (Triticum aestivum); assay: Test A postemergence; conditions: 0 to 100 scale, 0 no effect, 100 complete control, approx. 10 days
Procedure, shortened: as §1

[16] = tested on: corn (Zea mays); assay: Test A postemergence; conditions: 0 to 100 scale, 0 no effect, 100 complete control, approx. 10 days
Procedure, shortened: as §1

[17] = tested on: lambsquarters (Chenopodium album); assay: Test B postemergence; conditions: scale 0 to 100
Excerpt: Seeds of plant species selected from blackgrass (Alopecurus myosuroides), downy bromegrass (Bromus tectorum), green foxtail (Setaria viridis), Italian ryegrass (Lolium multiflorum), wheat (Triticum aestivum), wild oat (Avena fatua), galium (Galium aparine), bermudagrass (Cynodon dactylon), Surinam grass (Brachiaria decumbens), cocklebur (Xanthium strumarium), corn (Zea mays), large crabgrass (Digitaria sanguinalis), woolly cupgrass (Eriochloa villosa), giant foxtail (Setaria faberii), goosegrass (Eleusine indica), johnsongrass (Sorghum halepense), kochia (Kochia scoparia), lambsquarters (Chenopodium album), morningglory (Ipomoea coccinea), yellow nutsedge (Cyperus esculentus), pigweed (Amaranthus retroflexus), ragweed (Ambrosia elatior), soybean (Glycine max), velvetleaf (Abutilon theophrasti), barley (Hordeum vulgare), canarygrass (Phalaris minor), chickweed (Stellaria media), deadnettle (Lamium amplexicaule) and windgrass (Apera spica-venti) were planted in pots containing Redi-Earth® planting medium (Scotts Company, Marysville, Ohio, USA) comprising spaghnum peat moss, vermiculite, wetting agent and starter nutrients and treated postemergence with test compounds formulated in a non-phytotoxic solvent mixture which included a surfactant. Plants ranged in height from 2 to 18 cm (1- to 4-leaf stage).
Treated plants and controls were maintained in a greenhouse for 13 to 15 days, after which time all species were compared to controls and visually evaluated. Plant response ratings, summarized in Table B, are based on a scale of 0 to 100 where 0 is no effect and 100 is complete control. A dash (-) response means no test result.

[18] = tested on: ducksalad (Heteranthera limosa); assay: Test B flooded paddy test; conditions: Flood, scale 0 to 100
Procedure, shortened: (§2)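 Step one: raise plants to 2 leaves. Step two: flood pots 3 cm over the soil and apply compound into the water, keeping this depth. Step three: after 13–15 greenhouse days, score visually versus controls, 0–100, where 100 means complete control.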

[19] = tested on: rice (Oryza sativa); assay: Test B flooded paddy test; conditions: Flood, scale 0 to 100
Procedure, shortened: as §2

[20] = tested on: umbrella sedge (Cyperus difformis); assay: Test B flooded paddy test; conditions: Flood, scale 0 to 100
Procedure, shortened: as §2

[21] = tested on: barnyardgrass (Echinochloa crus-galli); assay: Test B flooded paddy test; conditions: Flood
Procedure, shortened: as §2

[22] = 250 g ai/ha, scale 0 to 100 (0 no effect, 100 complete control)

COCCn1c(-c2cc(F)cc(F)c2)c(Cl)nc(C(=O)C2=C(O)CCCC2=O)c1=O [Compound 6, 5-chloro-6-(3,5-difluorophenyl)-3-[(2-hydroxy-6-oxo-1-cyclohexen-1-yl)carbonyl]-1-(2-methoxyethyl)-2(1H)-pyrazinone]
30: Plant response rating, Ducksalad ([18]; 31 g ai/ha)
0: Plant response rating, Wheat ([7]; 125 g ai/ha) | Plant response rating, Corn ([8]; 125 g ai/ha) | Plant response rating, Wheat ([15]; 125 g ai/ha) | Plant response rating, Corn ([16]; 125 g ai/ha) | Plant response rating, Rice ([19]; 31 g ai/ha) | Plant response rating, Rice ([19]; 62 g ai/ha) | Plant response rating, Rice ([19]; 125 g ai/ha) | Plant response rating, Barnyardgrass ([21]; 31 g ai/ha, scale 0 to 100) | Plant response rating, Barnyardgrass ([21]; 62 g ai/ha, scale 0 to 100) | Plant response rating, Barnyardgrass ([21]; 125 g ai/ha, scale 0 to 100)
100: Plant response rating, Velvetleaf ([2]; 500 g ai/ha) | Plant response rating, Crabgrass, Large ([3]; 500 g ai/ha) | Plant response rating, Morningglory ([9]; 500 g ai/ha) | Plant response rating, Velvetleaf ([10]; 125 g ai/ha) | Plant response rating, Velvetleaf ([10]; 500 g ai/ha) | Plant response rating, Crabgrass, Large ([11]; 500 g ai/ha) | Plant response rating, Barnyardgrass ([12]; 500 g ai/ha) | Plant response rating, Pigweed ([14]; 500 g ai/ha) | Plant response rating, Lambsquarters ([17]; 125 g ai/ha) | Plant response rating, Lambsquarters ([17]; 250 g ai/ha)
90: Plant response rating, Crabgrass, Large ([3]; 125 g ai/ha) | Plant response rating, Barnyardgrass ([4]; 500 g ai/ha) | Plant response rating, Pigweed ([6]; 500 g ai/ha) | Plant response rating, Morningglory ([9]; 125 g ai/ha) | Plant response rating, Barnyardgrass ([12]; 125 g ai/ha) | Plant response rating, Foxtail, Giant ([13]; 500 g ai/ha) | Plant response rating, Sedge, Umbrella ([20]; 250 g ai/ha)
85: Plant response rating, Sedge, Umbrella ([20]; 125 g ai/ha)
70: Plant response rating, Foxtail, Giant ([5]; 500 g ai/ha) | Plant response rating, Pigweed ([14]; 125 g ai/ha) | Plant response rating, Ducksalad ([18]; 125 g ai/ha) | Plant response rating, Sedge, Umbrella ([20]; 62 g ai/ha)
40: Plant response rating, Morningglory ([1]; 125 g ai/ha) | Plant response rating, Corn ([16]; 500 g ai/ha)
80: Plant response rating, Morningglory ([1]; 500 g ai/ha) | Plant response rating, Crabgrass, Large ([11]; 125 g ai/ha) | Plant response rating, Lambsquarters ([17]; 31 g ai/ha) | Plant response rating, Ducksalad ([18]; 250 g ai/ha)
20: Plant response rating, Barnyardgrass ([4]; 125 g ai/ha) | Plant response rating, Foxtail, Giant ([5]; 125 g ai/ha) | Plant response rating, Wheat ([7]; 500 g ai/ha) | Plant response rating, Corn ([8]; 500 g ai/ha) | Plant response rating, Wheat ([15]; 500 g ai/ha)
98: Plant response rating, Lambsquarters ([17]; 62 g ai/ha)
50: Plant response rating, Velvetleaf ([2]; 125 g ai/ha) | Plant response rating, Pigweed ([6]; 125 g ai/ha) | Plant response rating, Foxtail, Giant ([13]; 125 g ai/ha) | Plant response rating, Ducksalad ([18]; 62 g ai/ha) | Plant response rating, Barnyardgrass [21, 22]
15: Plant response rating, Rice ([19]; 250 g ai/ha)
60: Plant response rating, Sedge, Umbrella ([20]; 31 g ai/ha)

COCCn1c(-c2cccc(F)c2)c(Cl)nc(C(=O)C2=C(O)CCCC2=O)c1=O [Compound 4, 5-chloro-6-(3-fluorophenyl)-3-[(2-hydroxy-6-oxo-1-cyclohexen-1-yl)carbonyl]-1-(2-methoxyethyl)-2(1H)pyrazinone]
70: Plant response rating, Morningglory ([1]; 500 g ai/ha) | Plant response rating, Barnyardgrass ([4]; 500 g ai/ha) | Plant response rating, Foxtail, Giant ([13]; 500 g ai/ha)
80: Plant response rating, Crabgrass, Large ([3]; 125 g ai/ha) | Plant response rating, Crabgrass, Large ([11]; 125 g ai/ha) | Plant response rating, Pigweed ([14]; 125 g ai/ha) | Plant response rating, Sedge, Umbrella ([20]; 250 g ai/ha)
95: Plant response rating, Lambsquarters ([17]; 31 g ai/ha)
40: Plant response rating, Velvetleaf ([2]; 125 g ai/ha) | Plant response rating, Corn ([16]; 500 g ai/ha)
65: Plant response rating, Ducksalad ([18]; 62 g ai/ha)
75: Plant response rating, Ducksalad ([18]; 125 g ai/ha) | Plant response rating, Sedge, Umbrella ([20]; 31 g ai/ha) | Plant response rating, Sedge, Umbrella ([20]; 62 g ai/ha) | Plant response rating, Sedge, Umbrella ([20]; 125 g ai/ha)
0: Plant response rating, Barnyardgrass ([4]; 125 g ai/ha) | Plant response rating, Foxtail, Giant ([5]; 125 g ai/ha) | Plant response rating, Wheat ([7]; 125 g ai/ha) | Plant response rating, Wheat ([7]; 500 g ai/ha) | Plant response rating, Corn ([8]; 125 g ai/ha) | Plant response rating, Corn ([8]; 500 g ai/ha) | Plant response rating, Wheat ([15]; 125 g ai/ha) | Plant response rating, Corn ([16]; 125 g ai/ha) | Plant response rating, Rice ([19]; 31 g ai/ha) | Plant response rating, Rice ([19]; 62 g ai/ha) | Plant response rating, Rice ([19]; 125 g ai/ha) | Plant response rating, Barnyardgrass ([21]; 31 g ai/ha, scale 0 to 100) | Plant response rating, Barnyardgrass ([21]; 62 g ai/ha, scale 0 to 100) | Plant response rating, Barnyardgrass ([21]; 125 g ai/ha, scale 0 to 100)
98: Plant response rating, Lambsquarters ([17]; 62 g ai/ha) | Plant response rating, Lambsquarters ([17]; 125 g ai/ha)
10: Plant response rating, Morningglory ([1]; 125 g ai/ha) | Plant response rating, Wheat ([15]; 500 g ai/ha)
30: Plant response rating, Foxtail, Giant ([5]; 500 g ai/ha) | Plant response rating, Foxtail, Giant ([13]; 125 g ai/ha) | Plant response rating, Rice ([19]; 250 g ai/ha) | Plant response rating, Barnyardgrass [21, 22]
85: Plant response rating, Ducksalad ([18]; 250 g ai/ha)
90: Plant response rating, Velvetleaf ([2]; 500 g ai/ha) | Plant response rating, Morningglory ([9]; 125 g ai/ha)
60: Plant response rating, Pigweed ([6]; 125 g ai/ha) | Plant response rating, Barnyardgrass ([12]; 125 g ai/ha) | Plant response rating, Ducksalad ([18]; 31 g ai/ha)
100: Plant response rating, Crabgrass, Large ([3]; 500 g ai/ha) | Plant response rating, Pigweed ([6]; 500 g ai/ha) | Plant response rating, Morningglory ([9]; 500 g ai/ha) | Plant response rating, Velvetleaf ([10]; 125 g ai/ha) | Plant response rating, Velvetleaf ([10]; 500 g ai/ha) | Plant response rating, Crabgrass, Large ([11]; 500 g ai/ha) | Plant response rating, Barnyardgrass ([12]; 500 g ai/ha) | Plant response rating, Pigweed ([14]; 500 g ai/ha) | Plant response rating, Lambsquarters ([17]; 250 g ai/ha)
